Among the test systems are SNB-19; NCI-H460; HT-29; SNB-78; LOX IMVI; Malme-3M; OVCAR-8; KM-20L2; IGROV-1; UO-31; NCI-H23; HCC 2998; UACC-62; NCI/ADR-RES; SR; T47D; SNB-75.
What all share (assay): inhibition of tumour cell growth, NCI panel, 48 h

Each structure is given as a SMILES string.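 Following 48 hours of exposure in 96-well plates, responses at five concentrations were used to interpolate endpoints linearly. GI50 is the concentration that inhibits growth by half.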 The source made the active and inactive calls. Rule as the data show it: active = GI50 up to about 1.1 µM and inactive = higher. Bounds are passed on as bounds.

Data on ten molecules can be found in ChEMBL document CHEMBL1201862, “PubChem BioAssay data set” (2004).

`COc1cc(/C=C2/C(=O)N(C(=O)c3ccc(Cl)cc3)N=C2C)cc(OC)c1OC`: the GI50 in the assay on SNB-19, in the assay with NCI-H460, in the assay on HT-29, in the assay on SNB-78, with LOX IMVI and in the assay with Malme-3M was > 100 µM (inactive) in each case. Further, the GI50 in the assay with OVCAR-8, in the assay with KM-20L2, in the assay with IGROV-1, in the assay with UO-31, with NCI-H23 and in the assay on HCC 2998 was > 100 µM (inactive) throughout. Moreover, the GI50 with UACC-62 is > 100 µM (inactive).
On to `CCc1nc2cc3cccnc3c(Cl)c2[nH]c1=O`, for which the GI50 in the assay on SNB-19 is 58.3 µM (inactive); with NCI-H460, > 100 µM (inactive); in the assay on HT-29 it was > 100 µM (inactive); in the assay with NCI/ADR-RES it was 79.1 µM (inactive); in the assay on LOX IMVI it was > 100 µM (inactive); with Malme-3M, > 100 µM (inactive). For the same molecule, the GI50 in the assay on OVCAR-8 was > 100 µM (inactive); with SR, > 100 µM (inactive); with IGROV-1, 71 µM (inactive); in the assay with T47D it was 63.4 µM (inactive); with SNB-75 it was 17.8 µM (inactive); in the assay with UO-31, > 100 µM (inactive). Also, the GI50 in the assay on NCI-H23, in the assay with HCC 2998 and in the assay with UACC-62 was > 100 µM (inactive) each time.
Regarding `COC(O)C(=O)c1c2c(cc3c1CCC3)CCCC2` (stereo not drawn), the GI50 in the assay on SNB-19 was 17.2 µM (inactive); with NCI-H460, 7.5 µM (inactive); in the assay with HT-29, 2.69 µM (inactive); with NCI/ADR-RES, 14.7 µM (inactive); with LOX IMVI, 1.99 µM (inactive); with Malme-3M, 14 µM (inactive). Besides, the GI50 with OVCAR-8 was 7.87 µM (inactive); with SR, 4 µM (inactive); with IGROV-1, 4.12 µM (inactive); in the assay on T47D, 6.28 µM (inactive); with SNB-75, 8.17 µM (inactive); in the assay on UO-31, 17.7 µM (inactive). The results for the GI50 in the assay with NCI-H23, with HCC 2998 and in the assay with UACC-62 were 10.7 µM (inactive), 1.97 µM (inactive) and 3.47 µM (inactive), respectively.
As to `NC12Oc3cc(O)cc(O)c3C1(c1ccc(Cl)cc1)c1c(O)cc(O)cc1O2` (stereo not drawn), the GI50 with SNB-19 is 73.1 µM (inactive); with NCI-H460, 34.6 µM (inactive); in the assay with HT-29 it was 35.4 µM (inactive); with NCI/ADR-RES, > 100 µM (inactive); in the assay on LOX IMVI, 57.4 µM (inactive); with Malme-3M, 40.6 µM (inactive). Further, the GI50 with OVCAR-8 is > 100 µM (inactive); in the assay with SR, 22.5 µM (inactive); with IGROV-1, 41.7 µM (inactive); in the assay on T47D it was > 100 µM (inactive); in the assay on SNB-75, 89.1 µM (inactive); in the assay with UO-31 it was 92.5 µM (inactive). The GI50 with NCI-H23 was 46.9 µM (inactive); in the assay on HCC 2998, > 100 µM (inactive); with UACC-62, 42 µM (inactive).
As for `Cc1ccc(CN2CCN(Cc3ccc(C)o3)C(C)C2)o1` (stereo not drawn), the GI50 in the assay on SNB-19, in the assay on NCI-H460, in the assay with HT-29, in the assay on NCI/ADR-RES, with LOX IMVI and in the assay with Malme-3M was > 100 µM (inactive) in each case. The GI50 in the assay on OVCAR-8, in the assay on SR, in the assay on IGROV-1, in the assay with T47D, in the assay on SNB-75 and with UO-31 was > 100 µM (inactive) throughout. Also, the GI50 in the assay with NCI-H23, in the assay with HCC 2998 and in the assay on UACC-62 was > 100 µM (inactive) throughout.
For `O=c1[nH]c(=S)[nH]n1C(=S)n1[nH]c(=S)[nH]c1=O`, the GI50 in the assay on SNB-19 is > 100 µM (inactive); in the assay on NCI-H460 it was > 100 µM (inactive); in the assay with HT-29, > 100 µM (inactive); with NCI/ADR-RES, > 100 µM (inactive); in the assay on LOX IMVI, 60.4 µM (inactive); with Malme-3M it was 36.7 µM (inactive). For the same molecule, the GI50 was > 100 µM (inactive) in the assay with OVCAR-8; 41.4 µM (inactive) in the assay with SR; > 100 µM (inactive) in the assay with IGROV-1; > 100 µM (inactive) in the assay on T47D; > 100 µM (inactive) with SNB-75; > 100 µM (inactive) with UO-31. The GI50 with NCI-H23, in the assay on HCC 2998 and with UACC-62 was > 100 µM (inactive) each time.
On to `Cn1c(CO)ccc1-c1ccc(-c2ccc(CO)[se]2)[se]1`, for which the GI50 was > 63.4 µM (inactive) with SNB-19; 18.4 µM (inactive) in the assay with NCI-H460; 37.7 µM (inactive) in the assay with HT-29; 33.9 µM (inactive) in the assay on NCI/ADR-RES; 16.2 µM (inactive) in the assay with LOX IMVI; 4.15 µM (inactive) in the assay on Malme-3M. Further, the GI50 in the assay with OVCAR-8 is 6.89 µM (inactive); in the assay with SR, 13.1 µM (inactive); in the assay on IGROV-1 it was 0.0621 µM (active); with T47D it was 11.9 µM (inactive); with SNB-75, > 100 µM (inactive); in the assay with UO-31, > 100 µM (inactive). The GI50 in the assay with NCI-H23 is 16.3 µM (inactive); in the assay with HCC 2998 it was 0.705 µM (active); in the assay with UACC-62 it was 6.95 µM (inactive).
For `CC(C)CC(C(N)=O)C(=O)NC(Cc1ccccc1)NC(=O)CNC(=O)C(C)NC(=O)C(N)Cc1ccc(O)cc1` (stereo not drawn), the GI50 with SNB-19, in the assay with NCI-H460, in the assay with HT-29, in the assay with NCI/ADR-RES, in the assay on LOX IMVI and with Malme-3M was > 100 µM (inactive) each time. For the same molecule, the GI50 with OVCAR-8, in the assay on SR, in the assay with IGROV-1, in the assay on T47D, in the assay with SNB-75 and in the assay on UO-31 was > 100 µM (inactive) each time. For the same molecule, the GI50 in the assay on NCI-H23, in the assay with HCC 2998 and in the assay on UACC-62 was > 100 µM (inactive) each time.
With `COc1cc2c(cc1OCCCC(=O)Nc1cc(C(=O)Nc3cc(C(=O)Nc4cc(C(=O)NCCCN(C)C)n(C)n4)n(C)c3)n(C)c1)N=CC1CCCN1C2=O` (stereo not drawn), the GI50 is 22.5 µM (inactive) in the assay with SNB-19; 25.9 µM (inactive) with NCI-H460; 20.3 µM (inactive) in the assay with HT-29; 39.8 µM (inactive) in the assay on NCI/ADR-RES; 18.7 µM (inactive) in the assay on LOX IMVI; 18.7 µM (inactive) in the assay with Malme-3M. Moreover, the GI50 with OVCAR-8 is 33 µM (inactive); in the assay with SR it was 3.76 µM (inactive); in the assay on IGROV-1 it was 6.38 µM (inactive); with T47D, 48.5 µM (inactive); with SNB-75, 23.9 µM (inactive); in the assay on UO-31, 22.2 µM (inactive). For the same molecule, the GI50 is 25.8 µM (inactive) with NCI-H23, 28.1 µM (inactive) in the assay with HCC 2998 and 19.1 µM (inactive) in the assay on UACC-62.
`CC1CC(C)(O)CC(C(O)CC2CC(=O)NC(=O)C2)C1=O` (stereo not drawn) [RESACTIN A]: the GI50 in the assay with SNB-19 was 0.0303 µM (active); in the assay with NCI-H460, 0.0385 µM (active); in the assay on HT-29, 0.037 µM (active); with NCI/ADR-RES, 0.232 µM (active); with LOX IMVI, 0.0283 µM (active); with Malme-3M, 0.0546 µM (active). For the same molecule, the GI50 with OVCAR-8 was 0.0266 µM (active); in the assay on SR, 0.0251 µM (active); with IGROV-1, 0.0292 µM (active); with T47D, 0.0431 µM (active); in the assay with SNB-75, 0.0225 µM (active); in the assay with UO-31, 0.055 µM (active). Further, the results for the GI50 with NCI-H23, in the assay with HCC 2998 and in the assay on UACC-62 were 0.0413 µM (active), 0.0441 µM (active) and 0.0413 µM (active), respectively.
